{"source": "patent US4908314A", "about": "(priority 1987, dated 1990)", "key": {"[1]": {"tested_on": "protein C activator of the present invention", "test": "biochemical", "assay_type": "biochemical, Agkistrodon contortrix contortrix"}, "[2]": {"molecular_target": "protein C activator of the present invention (Agkistrodon contortrix contortrix, UniProt P09872)", "sequence (P09872 whole entry, looked up)": "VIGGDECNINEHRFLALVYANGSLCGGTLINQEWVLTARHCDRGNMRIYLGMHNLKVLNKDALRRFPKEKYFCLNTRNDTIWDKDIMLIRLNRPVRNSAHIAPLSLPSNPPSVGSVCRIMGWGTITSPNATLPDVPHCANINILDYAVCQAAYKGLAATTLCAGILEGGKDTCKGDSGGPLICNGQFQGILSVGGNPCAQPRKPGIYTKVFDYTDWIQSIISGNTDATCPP", "test": "biochemical", "assay_type": "biochemical"}, "[3]": {"tested_on": "Protac®", "settings": "cited from earlier work"}, "[4]": {"tested_on": "protein C activator of Klein et al", "settings": "cited from earlier work"}, "[5]": {"molecular_target": "T1, Factor VIIIa (Homo sapiens, UniProt P00451)", "T1 sequence (P00451 20-391 limits assumed)": "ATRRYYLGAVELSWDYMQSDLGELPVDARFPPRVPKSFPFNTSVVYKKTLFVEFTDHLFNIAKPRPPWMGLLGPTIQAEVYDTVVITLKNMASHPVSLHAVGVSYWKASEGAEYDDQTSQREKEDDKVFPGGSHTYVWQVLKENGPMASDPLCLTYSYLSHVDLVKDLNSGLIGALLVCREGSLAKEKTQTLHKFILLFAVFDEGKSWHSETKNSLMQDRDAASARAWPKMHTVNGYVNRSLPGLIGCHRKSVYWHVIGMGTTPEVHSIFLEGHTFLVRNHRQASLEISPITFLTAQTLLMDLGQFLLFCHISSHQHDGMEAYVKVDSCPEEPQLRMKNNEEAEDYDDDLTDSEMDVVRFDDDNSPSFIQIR", "T1 sequence (P00451 392-759 limits assumed)": "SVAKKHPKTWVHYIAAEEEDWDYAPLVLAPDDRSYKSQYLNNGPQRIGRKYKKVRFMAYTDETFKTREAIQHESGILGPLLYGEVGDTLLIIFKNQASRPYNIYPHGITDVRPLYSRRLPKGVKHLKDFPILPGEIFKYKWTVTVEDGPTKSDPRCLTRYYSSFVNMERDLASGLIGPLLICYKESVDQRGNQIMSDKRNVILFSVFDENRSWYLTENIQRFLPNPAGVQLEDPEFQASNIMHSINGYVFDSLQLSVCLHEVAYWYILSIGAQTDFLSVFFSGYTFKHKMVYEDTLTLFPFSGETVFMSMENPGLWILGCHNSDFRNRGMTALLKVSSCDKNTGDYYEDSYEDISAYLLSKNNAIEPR", "T1 sequence (P00451 1709-2351 limits assumed)": "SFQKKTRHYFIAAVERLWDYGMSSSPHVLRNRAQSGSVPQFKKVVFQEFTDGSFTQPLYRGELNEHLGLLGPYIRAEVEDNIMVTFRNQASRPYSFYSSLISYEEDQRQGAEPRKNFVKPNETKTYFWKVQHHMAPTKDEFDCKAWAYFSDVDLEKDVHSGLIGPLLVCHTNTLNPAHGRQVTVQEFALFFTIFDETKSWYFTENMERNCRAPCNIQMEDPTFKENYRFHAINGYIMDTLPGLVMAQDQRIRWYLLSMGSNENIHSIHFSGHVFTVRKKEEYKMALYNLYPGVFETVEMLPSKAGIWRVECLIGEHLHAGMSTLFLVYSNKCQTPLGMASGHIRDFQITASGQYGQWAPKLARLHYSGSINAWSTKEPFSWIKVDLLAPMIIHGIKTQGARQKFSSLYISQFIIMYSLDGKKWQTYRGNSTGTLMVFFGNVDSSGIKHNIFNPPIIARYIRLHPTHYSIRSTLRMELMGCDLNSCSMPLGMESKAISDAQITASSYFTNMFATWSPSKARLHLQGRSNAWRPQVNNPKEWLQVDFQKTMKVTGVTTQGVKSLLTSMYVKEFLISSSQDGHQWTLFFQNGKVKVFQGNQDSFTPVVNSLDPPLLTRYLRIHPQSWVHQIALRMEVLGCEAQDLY", "test": "Inactivation of Factor VIIIa in vitro", "assay_type": "biochemical", "settings": "picomolar concentrations"}, "[6]": {"test": "Amidolysis of chromogenic substrates", "assay_type": "biochemical"}, "[7]": {"tested_on": "plasminogen activator inhibitor (PAI)", "test": "Neutralization of plasminogen activator inhibitor activity in vitro", "assay_type": "biochemical"}}}
{"molecule": "NC(N)=NCCC[C@H](NC(=O)[C@@H]1CCCN1C(=O)[C@H](N)Cc1ccccc1)C(=O)CCl", "note": "[D-Phe-Pro-Arg-chloromethylketone]", "values": [{"measurement": "fold higher Ki than the Ki of thrombin inhibition", "setting": "[1]", "value": "approximately 500 fold"}, {"measurement": "Inhibition of activity of the activator by serine protease inhibitors", "setting": "[2]", "value": "inhibited"}, {"measurement": "Ki", "setting": "[2]", "value": 34, "unit": "µM"}]}
{"molecule": "NC(=O)CI", "note": "[iodoacetamide]", "values": [{"measurement": "Inhibition of activity of Protac", "setting": "[3]", "value": "not inhibited"}]}
{"molecule": "N=C(N)Nc1ccc(C(=O)Oc2ccc([N+](=O)[O-])cc2)cc1", "note": "[p-nitrophenyl, p-guanidinobenzoate]", "values": [{"measurement": "Inhibition of activity of the activator by serine protease inhibitors", "setting": "[2]", "value": "inhibited"}]}
{"molecule": "O=S(=O)(F)Cc1ccccc1", "note": "[phenylmethylsulphonylfluoride]", "values": [{"measurement": "Inhibition of activity of the activator by serine protease inhibitors", "setting": "[2]", "value": "inhibited"}]}
{"molecule": "Antithrombin III", "values": [{"measurement": "Inhibition of activity of the Klein et al activator", "setting": "[4]", "value": "no effect"}]}
{"molecule": "activated protein C", "values": [{"measurement": "inactivation of Factor VIIIa", "setting": "[5]", "value": "rapid inactivation"}, {"measurement": "activity of amidolysis of chromogenic substrates compared with thrombin-activated protein C", "setting": "[6]", "value": "approximately the same activity"}, {"measurement": "neutralization of PAI activity", "setting": "[7]", "value": "neutralization"}]}
{"molecule": "soybean trypsin inhibitor: serine protease inhibitor protein (protein, UniProt P01070 25-205, looked up) Trypsin inhibitor A: DFVLDNEGNPLENGGTYYILSDITAFGGIRAAPTGNERCPLTVVQSRNELDKGIGTIISSPYRIRFIAEGHPLSLKFDSFAVIMLCVGIPTEWSVVEDLPEGPAVKIGENKDAMDGWFRLERVSDDEFNNYKLVFCPQQAEDDKCGDIGISIDHDDGTRRLVVSKNKPLVVQFQKLDKESL", "values": [{"measurement": "Inhibition of activity of the Klein et al activator", "setting": "[4]", "value": "inhibited"}, {"measurement": "Inhibition of activity of the activator by serine protease inhibitors", "setting": "[2]", "value": "inhibited"}]}
